Results taken from patent US9802897B2, “Amidopyridinol derivative or pharmaceutically acceptable salt thereof and pharmaceutical composition comprising same as active component” (Research Cooperation Foundation of Yeungnam University, priority 2013, dated 2017).
Like-named read-outs stand apart in the source and are kept apart here. Marks after values point to notes of the source that are not given here.

Tests used:
HT-29 cells / U937 cells = assay: TNF-α-induced adhesion of HT-29 intestinal epithelial cells and U937 mononuclear cells; type: cell-based, human; conditions: 1 μM, pre-treated 1 hour, TNF-α 10 ng/ml; for inhibition at 1 µM: Homo sapiens, read-out: Inhibitory rates (%)
Description: HT-29 cells were cultured in a 24-well plate at a concentration of […] cells/cm^2, and meanwhile, amidopyridinol compounds 8a to 8z were pre-treated for 1 hour at each concentration in a serum-free medium supplemented only with 1% PS. Next, 10 ng/ml of TNF-α was treated therewith to allow a reaction at a temperature of 37° C. for 3 hours. After the completion of the reaction, the medium of the HT-29 cells was removed, and then, the HT-29 cells were washed with PBS once. Afterwards, U937 cells, which were treated and reacted with 10 μg/mL of BCECF-AM at a temperature of 37° C. for 30 minutes, were allowed to react with the HT-29 cells at temperature of 37° C. for 1 hour. Then, to remove U937 cells that were not adhered to the HT-29 cells, the reacted cells were washed with PBS twice. In terms of cell dissolution, 0.1% Triton X-100 in 0.1M Tris was allowed to react with the cells for 30 minutes at room temperature, and then, the cells were subjected to quantify by measuring fluorescence thereof using the Fluostar optima microplate reader (BMG Labtechnologies, Germany).

cathepsin S = assay: RT-PCR of cathepsin S gene expression in MDA-MB-231 cells; type: cell-based; conditions: for effects for reducing expression of cathepsin S genes (in words): MDA-MB-231
Description: Each compound of the present invention was treated with breast cancer cells (1×10^5 cell/cm^2), e.g., MDA-MB-231, and then, cultured at a temperature of 37° C. for 24 hours in a cell incubator. Afterwards, a trizole reagent was used to extract the entire mRNA therefrom. 24 hours later, the culture medium was removed therefrom, 1 mL of the triazole reagent was added to each well, and then, the cell elusion was transferred to a 1.5 mL tube. After 200 μl of chloroform was added to each sample, the samples were subjected to centrifugation at a temperature of 4° C., at 12,000 g, for 15 minutes. 500 μl of the supernatant obtained therefrom was transferred to a new tube. After 500 μl of isopropylalcohol was added to each sample, the samples were subjected to centrifugation at a temperature of 4° C., at 12,000 g, for 15 minutes. The supernatant obtained therefrom was removed from each sample, and then, the samples were washed with 75% ethanol to clean mRNA while the precipitants were dried. Then, mRNA extracted therefrom was dissolved in RNase-free water, followed by being heated at a temperature of 55° C. for 10 minutes.
After the RNA quantification, the GoScript™ reverse transcription system (Promega Corporation, Madison, Wis., USA) was used to synthesize cDNA. Here, PCR was performed by using TaKaRa Taq™ (Takara bio Inc., Shiga, Japan), wherein a primer set of cathepsin S consists of a forward primer having SEQ ID NO: 1 (forward sequence: 5′-GCAGTGGCACAGTTGCATAA-3′) and a reverse primer having SEQ ID NO: 2 (reverse sequence: 5′-AGCACCACAAGAACCCATGT-3′). After the PCR product was subjected to agarose gel electrophoresis, the PCR product was stained with ethidium bromide (0.5 μg/ml), thereby obtaining images thereof by using the gel imaging system (UVP, Cambridge, UK). Here, the PCR product was quantified based on glyceraldehyde 3-phosphate dehydrogenase (GAPDH). A GAPDH primer used herein consists of a forward primer having SEQ ID NO: 3 (forward sequence: 5′-GGTGAAGGTCGGAGTCAACG-3′) and a reverse primer having SEQ ID NO: 4 (reverse sequence: 5′-CAAAGTTGTCATGGATGACC-3′).
Furthermore, to screen other amidopyridinol derivatives that inhibit metastasis of breast cancer cells, inhibitory effects on expression of cathepsin S genes were reviewed by treating 1 μM of each compound, in the same manner as in Experimental Example 9.

MDA-MB-231 cells = assay: Transwell invasion assay of MDA-MB-231 breast cancer cells; type: cell-based; conditions: MDA-MB-231; for inhibition at 0.01 µM / inhibition at 0.1 µM / inhibition at 1 µM / inhibition at 10 µM: Homo sapiens, read-out: Inhibition rates of invasion of cancer cells (%)
Description: The invasion assay was performed by using the transwell insert (BD FALCON, Bedford, USA) equipped with a 8 μm pore-sized filter. An upper part of the transwell insert filter was coated with 20 μl of matrigel (1 mg/ml) while a bottom part of the same was coated with 30 μl of type I collagen (0.5 mg/ml). The MDA-MB-231 cells (5×10^5 cells/100 μl) were added to the insert chamber, and then, each inhibitor was also added thereto. To induce invasion of the cells, a medium supplemented with 5% FBS was added to each well of the bottom chamber to allow a reaction at a temperature of 37° C. in a cell incubator. 18 hours later, the cells remained after removing the solution in the insert chamber were removed by using a cotton swab, whereas cells at the bottom of the membrane were fixed with methanol and stained with hematoxylin and eosin. The cells present at the membrane were observed through a microscope, and the number of the cells was counted in the selected 5 fields at the resolution of 200×.
According to the same manner as in Experimental Example 7, inhibitory effects of the amidopyridinol derivatives synthesized in Examples above on invasion of breast cancer cells, e.g., MDA-MB-231, were reviewed. Here, to compare with, inhibitory effects of aminopyridinol derivatives, e.g., 6-amino-2,4,5-trimethylpyridine-3-ol (BJ-1101) and 6-diphenylamino-2,4,5-trimethylpyridine-3-ol (BJ-1201), on invasion of breast cancer cells, e.g., MDA-MB-231, were reviewed.

[1] = tested on: VEGF-induced angiogenesis in chicken chorioallantoic membrane (CAM); assay: CAM analysis of VEGF-induced angiogenesis; type: in vivo; conditions: VEGF (20 ng/CAM) + Compound (0.01 nmol/CAM), number of blood vessels after 3 days; for inhibition in vivo at 0.01 nmol/CAM: Gallus gallus, 72 h, read-out: Inhibitory rates (%)
Description: To confirm inhibitory effects on angiogenesis through in vivo experiments, the chorioallantoic membrane (CAM) analysis was carried out (refer to Nguyen M et al., Microvascular Res., 47, pp 31-40, 1994). A fertilized egg of a chicken was cultured in conditions maintaining a temperature of 37° C. and relative humidity of 55%. On the 10th day of the culturing, a first small hole was made on an air sac part using a hypodermic needle (Green Cross Medical Corp., Korea), and then, a second hole was made on a flat part of the fertilized egg to make a window thereon. Air was removed through the first hole, i.e., the air sac part, and accordingly, the CAM was separated from the shell of the fertilized egg. Then, a grinding wheel (Multipro 395JA, Dremel, Mexico) was used to cut the air sac part, thereby making a window thereon. Next, the whatman filter disk #1 (Whatman Company, USA) was treated with 3 mg/mL of cortisone acetate, dried, and then, wet by VEGF at a concentration of 20 ng/CAM. The filter disk was placed on blood vessels through the window, and then, compounds prepared according to Examples above were each dissolved in DMSO, diluted with PBS, and then, treated for each concentration. After 3 days of treating the compounds, the CAM part on which the filter disk was placed was isolated, and then, washed with PBS. The Stemi SV6 stereomicroscope (Carl Zeiss, Germany) and the Image-Pro Plus software (Media Cybernetics; Silver Spring, Md., USA) were used to capture images of the CAM part, so as to measure the number of the blood vessels and to analyze data obtained therefrom.

[2] = Homo sapiens, MDA-MB-231, 24 h, screening, 1 μM of each compound, MDA-MB-231, RT-PCR, read-out: Inhibition rate of expression of cathepsin S (%)
[3] = Homo sapiens, MDA-MB-231, 24 h, 1 μM, MDA-MB-231, 24 hours, RT-PCR, read-out: Inhibition rate of expression of cathepsin S (%)
[4] = screening, 1 μM of each compound, MDA-MB-231, RT-PCR

Molecule	inhibition at 1 µM (HT-29 cells / U937 cells) [%]	inhibition at 1 µM (cathepsin S; [2]) [%]	inhibition at 0.01 µM (MDA-MB-231 cells) [%]	inhibition at 0.1 µM (MDA-MB-231 cells) [%]	inhibition at 1 µM (MDA-MB-231 cells) [%]	inhibition at 10 µM (MDA-MB-231 cells) [%]	inhibitory effects on invasion of breast cancer cells (in words) (MDA-MB-231 cells)	inhibition in vivo at 0.01 nmol/CAM [1] [%]	inhibition at 1 µM (cathepsin S; [3]) [%]	also measured
CCC(CC)C(=O)Nc1nc(C)c(O)c(C)c1C [Compound 8r, 2-ethyl-N-(5-hydroxy-3,4,6-trimethylpyridine-2-yl)butanamide]	4.2	3.9 ± 0.22								
Cc1nc(NC(=O)c2cccs2)c(C)c(C)c1O [Compound 8q, N-(5-hydroxy-3,4,6-trimethylpyridine-2-yl)thiophene-2-carboxamide]	68.4		47.6 ± 18.1	59 ± 10.4	65.8 ± 5.03	67.8 ± 4.25	showed inhibitory effects on invasion of breast cancer cells	74.8 ± 13.2	57 ± 1.55	inhibition at 0.01 µM (cathepsin S; Homo sapiens, MDA-MB-231, 24 h, 0.01 μM, MDA-MB-231, 24 hours, RT-PCR, read-out: Inhibition rate of expression of cathepsin S (%)): 42 ± 1.21%; inhibition at 0.1 µM (cathepsin S; Homo sapiens, MDA-MB-231, 24 h, 0.1 μM, MDA-MB-231, 24 hours, RT-PCR, read-out: Inhibition rate of expression of cathepsin S (%)): 52 ± 1.68%; effects for reducing expression of cathepsin S genes (in words) (cathepsin S): the most effects for reducing expression of cathepsin S genes
N-(5-hydroxy-3,4,6-trimethylpyridine-2-yl)isobutyryl amide [Compound 8d]										Inhibitory rates (%) [1]: 53.2 ± 11.5 %; Inhibitory rates (%) (HT-29 cells / U937 cells): 52.3* %; Inhibition rate of expression of cathepsin S (%) (cathepsin S; [4]): 33 ± 1.23%
Cc1cc(C)c(C(=O)Nc2nc(C)c(O)c(C)c2C)c(C)c1 [Compound 8u, N-(5-hydroxy-3,4,6-trimethylpyridine-2-yl)-2,4,6-trimethylbenzamide]	30.4	2.9 ± 0.08								
Cc1nc(NC(=O)CCCCl)c(C)c(C)c1O [Compound 8c, N-(5-hydroxy-3,4,6-trimethylpyridine-2-yl)-4-chlorobutaneamide]	24.7	27 ± 1.33						70.2 ± 4.6		
Cc1nc(N)c(C)c(C)c1O [BJ-1101, 6-amino-2,4,5-trimethylpyridine-3-ol]			0.45 ± 15.6	0	0.3 ± 31.8	1.73 ± 22.7	no inhibitory effects on invasion of breast cancer cells		3.3 ± 0.82	effects for reducing expression of cathepsin S genes (in words) (cathepsin S): no effects for reducing expression of cathepsin S genes
Cc1nc(NC(=O)c2ccc(F)cc2)c(C)c(C)c1O [Compound 8l, N-(5-hydroxy-3,4,6-trimethylpyridine-2-yl)-4-fluorobenzamide]	13.7		8.57 ± 21.5	11 ± 23.1	33 ± 4.37	49.6 ± 7.82	showed inhibitory effects on invasion of breast cancer cells	75.3 ± 6.3	0	inhibition at 10 µM (cathepsin S; Homo sapiens, MDA-MB-231, 24 h, 10 μM, MDA-MB-231, 24 hours, RT-PCR, read-out: Inhibition rate of expression of cathepsin S (%)): 12 ± 0.35%
Cc1nc(NC(=O)c2cccc3ccccc23)c(C)c(C)c1O [Compound 8p, N-(5-hydroxy-3,4,6-trimethylpyridine-2-yl)-1-naphthamide]	64.9	44 ± 2.47						75.8 ± 5.4		
CCC(C(=O)Nc1nc(C)c(O)c(C)c1C)c1ccccc1 (stereo not shown) [Compound 8t, N-(5-hydroxy-3,4,6-trimethylpyridine-2-yl)-2-phenyl butanamide]										Inhibitory rates (%) (HT-29 cells / U937 cells): 23.6* %; Inhibition rate of expression of cathepsin S (%) (cathepsin S; [4]): 8.2 ± 0.43%
Cc1nc(NC(=O)C(C)(C)C)c(C)c(C)c1O [Compound 8f, N-(5-hydroxy-3,4,6-trimethylpyridine-2-yl)pivalamide]	37.5	16.4 ± 0.12						73.2 ± 6.4		
Cc1nc(N(c2ccccc2)c2ccccc2)c(C)c(C)c1O [BJ-1201, 6-diphenylamino-2,4,5-trimethylpyridine-3-ol]			2.52 ± 18.7	0	1.78 ± 22.1	1.96 ± 6.78	no inhibitory effects on invasion of breast cancer cells		2.7 ± 0.12	effects for reducing expression of cathepsin S genes (in words) (cathepsin S): no effects for reducing expression of cathepsin S genes
Cc1nc(NC(=O)c2ccc(C(C)(C)C)cc2)c(C)c(C)c1O [Compound 8n, N-(5-hydroxy-3,4,6-trimethylpyridine-2-yl)-4-(tert-butyl)benzamide]	22.5	8 ± 0.41						74.2 ± 7		
